Laboratory results: patent US20030148970A1, “Methods for specifically inhibiting histone deacetylase-4” (priority 2001, published 2003)

Columns and labels:
human cancer cells = test: cell growth analysis (trypan blue) and apoptosis, cancer cells; format: cell-based; settings: 50 nM
Experimental: (§1) In order to determine the effect of HDAC OSDNs on cell growth and cell death through apoptosis, A549 or T24 cells, MDAmb231 cells, and HMEC cells (ATCC, Manassas, Va.) were treated with HDAC OSDNs as previously described.
(§2) For the apoptosis study, cells were analyzed using the Cell Death Detection ELISA Plus kit (Roche Diagnostic GmBH, Mannheim, Germany) according to the manufacturer's directions. Typically, 10,000 cells were plated in 96-well tissue culture dishes for 2 hours before harvest and lysis. Each sample was analyzed in duplicate. ELISA reading was done using a MR700 plate reader (DYNEX Technology, Ashford, Middlesex, England) at 410 nm. The reference was set at 490 nm.
Cells were harvested and cell numbers counted by trypan blue exclusion using a hemocytometer. Percentage of inhibition was calculated as (100-AS cell numbers/control cell numbers)%.

T24 = test: Cell Death Detection ELISA apoptosis, T24; format: cell-based, human; settings: 48 Hour Treatment; TSA at 100 ng/ml
Experimental: as §1, §2

human HDAC-6 RNA = test: antisense ODN screen in T24 cells, Northern blot, HDAC-6; format: cell-based; settings: 100 nM, 24 hours
Experimental: Thirteen phosphorothloate ODNs containing sequences complementary to the 5′ or 3′ untranslated regions of the human HDAC-6 gene (GenBank Accession No. AJ011972) were screened as above. […] HDAC-6 MM oligo was created as a control; compared to the antisense oligo, it contains a 7-base mismatch.
(§3) Briefly, human A549 and/or T24 human bladder carcinoma cells were seeded in 10 cm tissue culture dishes one day prior to oligonucleotide treatment. The cell lines were obtained from the American Type Culture Collection (ATCC) (Manassas, Va.) and were grown under the recommended culture conditions. Before the addition of the oligonucleotides, cells were washed with PBS (phosphate buffered saline). Next, lipofectin transfection reagent (GIBCO BRL Mississauga, Ontario, Calif.), at a concentration of 6.25 μg/ml, was added to serum free OPTIMEM medium (GIBCO BRL, Rockville, Md.), which was then added to the cells. The oligonucleotides to be screened were then added directly to the cells (i.e., one oligonucleotide per plate of cells). Mismatched oligonucleotides were used as controls. The same concentration of oligonucleotide (e.g., 50 nM) was used per plate of cells for each oligonucleotide tested.
(§4) Cells were harvested, and total RNAs were analyzed by Northern blot analysis. Briefly, total RNA was extracted using RNeasy miniprep columns (QIAGEN). […]

HMEC = test: Cell Death Detection ELISA apoptosis, HMEC; format: cell-based, human; settings: 48 Hour Treatment; TSA at 100 ng/ml; normal cells
Experimental: as §1, §2

MDAmb231 = test: Cell Death Detection ELISA apoptosis, MDAmb231; format: cell-based, human; settings: 48 Hour Treatment; TSA at 100 ng/ml
Experimental: as §1, §2

human HDAC-6 protein = test: Western blot of HDAC-6 protein in A549 cells; format: cell-based; settings: 50 nM, 48 hours
Experimental: (§5) OSDN treatment conditions were as previously described.
(§6) Cells were lysed in buffer containing 1% Triton X-100, 0.5% sodium deoxycholate, 5 mM EDTA, 25 mM Tris-HCl, pH 7.5, plus protease inhibitors. Total protein was quantified by the protein assay reagent from Bio-Rad (Hercules, Calif.). 100 ug of total protein was analyzed by SDS-PAGE. Next, total protein was transferred onto a PVDF membrane and probed with various HDAC-specific primary antibodies. Rabbit anti-HDAC-1 (H-51), anti-HDAC-2 (H-54) antibodies (Santa Cruz Biotechnologies, Santa Cruz, Calif.) were used at 1:500 dilution. Rabbit anti-HDAC-3 antibody (Sigma, St. Louis, Mo.) was used at a dilution of 1:1000. Anti-HDAC-4 antibody was prepared as previously described (Wang, S. H. et al., (1999) Mol. Cell. Biol. 19:7816-27), and was used at a dilution of 1:1000. Anti-HDAC-6 antibody was raised by immunizing rabbits with a GST fusion protein containing a fragment of HDAC-6 protein (amino acid #990 to #1216, GenBank Accession No. AAD29048). Rabbit antiserum was tested and found only to react specifically to the human HDAC-6 isoform. HDAC-6 antiserum was used at 1:500 dilution in Western blots to detect HDAC-6 in total cell lysates. Horse Radish Peroxidase conjugated secondary antibody was used at a dilution of 1:5000 to detect primary antibody binding. […]

A549 = test: Cell Death Detection ELISA apoptosis, A549; format: cell-based, human; settings: 48 Hour Treatment; TSA at 100 ng/ml
Experimental: as §1, §2

human HDAC-3 protein = test: Western blot of HDAC-3 protein in A549 cells; format: cell-based; settings: 50 nM, 48 hours
Experimental: as §5, §6

human HDAC-3 RNA = test: antisense ODN screen in T24 cells, Northern blot, HDAC-3; format: cell-based; settings: 100 nM, 24 hours
Experimental: Twenty-one phosphorothioate ODNs containing sequences complementary to the 5′ or 3′ UTR of the human HDAC-3 gene (GenBank Accession No. AF039703) were screened as above. […] HDAC-3 MM oligo was created as a control; compared to the antisense oligo, it contains a a 6-base mismatch.
as §3, §4

mammalian HDAC = settings: Yoshida et al. 1990; cited from earlier work
GADD45 mRNA = test: RNase protection assay, GADD45 in A549; format: cell-based, human; settings: TSA 250 ng/ml, 16 hours
Experimental: (§7) As a control, A549 cells were treated by lipofectin with or without TSA (250 ng/ml) treatment for 16 hours. These RNase protection assays were done according to the following procedure. Total RNA from cells was prepared using “RNeasy miniprep kit” from QIAGEN following the manufacturer's manual. Labeled probes used in the protection assays were synthesized using “hStress-1 multiple-probe template sets” from Pharmingen (San Diego, Calif., U.S.A.) according to the manufacturer's instructions. Protection procedures were performed using “RPA II™ Ribonuclease Protection Assay Kit” from Ambion, (Austin, Tx.) following the manufacturer's instructions. Quantitation of the bands from autoradiograms was done by using Cyclone™ Phosphor System (Packard Instruments Co. Inc., Meriden, Conn.).

Bax mRNA = test: RNase protection assay, Bax in A549; format: cell-based, human; settings: TSA 250 ng/ml, 16 hours
Experimental: as §7

[1] = tested on: murine erythroleukemia cells; settings: Yoshida et al. 1987; cited from earlier work
p21 mRNA = test: RNase protection assay, p21 in A549; format: cell-based, human; settings: TSA 250 ng/ml, 16 hours
human HDAC-2 RNA = test: antisense ODN screen in T24 cells, Northern blot, HDAC-2; format: cell-based; settings: 100 nM, 24 hours
Experimental: Twenty-four phosphorothioate ODNs containing sequences complementary to the 5′ or 3′ UTR of the human HDAC-2 gene (GenBank Accession No. U31814) were screened as above. […] HDAC-2 MM was created as a control; compared to the antisense oligo, it contains a 7-base mismatch.
as §3, §4

human HDAC-2 protein = test: Western blot of HDAC-2 protein in A549 cells; format: cell-based; settings: 50 nM, 48 hours
Experimental: as §5, §6

fold induction of transcription, GADD45, A549, TSA vs lipofectin (GADD45 mRNA) [fold] | fold induction of transcription, Bax, A549, TSA vs lipofectin (Bax mRNA) [fold] | fold induction of transcription, p21, A549, TSA vs lipofectin (p21 mRNA) [fold] | Molecule | effect on cancer cell growth and apoptosis (human cancer cells) | Apoptosis, T24 (T24) | antisense activity, HDAC-6 RNA expression (human HDAC-6 RNA) | Apoptosis, HMEC (HMEC) | Apoptosis, MDAmb231 (MDAmb231) | expression of HDAC-6 protein (human HDAC-6 protein) | Apoptosis, A549 (A549) | expression of HDAC-3 protein (human HDAC-3 protein) | antisense activity, HDAC-3 RNA expression (human HDAC-3 RNA) | inhibition of mammalian HDAC (mammalian HDAC) | induction of differentiation in murine erythroleukemia cells [1] | antisense activity, HDAC-2 RNA expression (human HDAC-2 RNA) | expression of HDAC-2 protein (human HDAC-2 protein)
– | – | – | HDAC-6 AS: 5′-CAGGCTGGAATGAGCTACAG-3′, antisense to human HDAC6 3′-UTR, AJ011972 (chemistry not given here) | no effect on cancer cell growth or apoptosis | − (“−”: <= 2× fold over non-specific background) | antisense activity to human HDAC-6 | − (“−”: <= 2× fold over non-specific background) | − (“−”: <= 2× fold over non-specific background) | specifically inhibits the expression of the respective HDAC isotype protein | − (“−”: <= 2× fold over non-specific background) | – | – | – | – | – | –
– | – | – | HDAC-3 AS: 5′-CGCTTTCCTTGTCATTGACA-3′, antisense to human HDAC3 3′-UTR, AF039703 (chemistry not given here) | no effect on cancer cell growth or apoptosis | − (“−”: <= 2× fold over non-specific background) | – | − (“−”: <= 2× fold over non-specific background) | − (“−”: <= 2× fold over non-specific background) | – | − (“−”: <= 2× fold over non-specific background) | specifically inhibits the expression of the respective HDAC isotype protein | antisense activity to human HDAC-3 | – | – | – | –
0.6 | 0.8 | 2.8 | CC(/C=C/C(=O)NO)=C\[C@@H](C)C(=O)c1ccc(N(C)C)cc1 [TSA, (R)-Trichostatin A] | – | ++ (“++”: 3-5× fold) | – | + (“+”: 2-3× fold) | ++ (“++”: 3-5× fold) | – | ++ (“++”: 3-5× fold) | – | – | potent inhibitor of mammalian HDAC | potent inducer of differentiation | – | –
– | – | – | HDAC-2 AS: 5′-GCTGAGCTGTTCTGATTTGG-3′, antisense to human HDAC2 3′-UTR, U31814 (chemistry not given here) | minimal effect on cancer cell growth inhibition | − (“−”: <= 2× fold over non-specific background) | – | − (“−”: <= 2× fold over non-specific background) | − (“−”: <= 2× fold over non-specific background) | – | − (“−”: <= 2× fold over non-specific background) | – | – | – | – | antisense activity to human HDAC-2 | specifically inhibits the expression of the respective HDAC isotype protein
